Measurements published in ChEMBL document CHEMBL1123847, “Synthesis and structure-activity relationship of 1-aryl-6,8-difluoroquinolone antibacterial agents” (1987).
Values after ≈ are worked out from the molar mass of the structure shown.

Columns and labels:
Acinetobacter = assay: In vitro antibacterial activity against Acinetobacter CMX 669; assay type: functional
Staphylococcus aureus [1] = assay: In vitro antibacterial activity against Staphylococcus aureus CMX 686B; assay type: functional
[2] = tested on: Staphylococcus epidermidis; assay: In vitro antibacterial activity against Staphylococcus epidermis 3519; assay type: functional
Klebsiella pneumoniae = assay: In vitro antibacterial activity against Klebsiella pneumoniae 8045; assay type: functional
Pseudomonas aeruginosa [3] = assay: In vitro antibacterial activity against Pseudomonas aeruginosa 5007; assay type: functional
Pseudomonas aeruginosa [4] = assay: […] against Pseudomonas aeruginosa 5007 (100 X LD50) (p.o. administration ); Range is between (6.8-26.2).; assay type: functional; conditions: po
Streptococcus pyogenes = assay: In vitro antibacterial activity against Streptococcus pyogenes 930; assay type: functional
Enterococcus faecium = assay: In vitro antibacterial activity against Streptococcus faecium ATCC 8043; assay type: functional
Escherichia coli [5] = assay: animal or person; conditions: in Mus musculus, sc
Staphylococcus aureus [6] = assay: animal or person; conditions: in Mus musculus, sc
Description: In vitro mouse protection test against Staphylococcus aureus NCTC 10649 (100 X LD50) (s.c. administration );Range is between (1.0-2.5)

Pseudomonas aeruginosa [7] = assay: In vitro antibacterial activity against Pseudomonas aeruginosa K799/WT; assay type: functional
Staphylococcus aureus [8] = assay: animal or person; conditions: in Mus musculus, po
Description: In vitro mouse protection test against Staphylococcus aureus NCTC 10649 (100 X LD50) (p.o. administration );Range is between (9.9-24.1)

Escherichia coli [9] = assay: animal or person; conditions: in Mus musculus, po
Staphylococcus aureus [10] = assay: In vitro antibacterial activity against Staphylococcus aureus ATCC 6538P; assay type: functional
Klebsiella aerogenes = assay: In vitro antibacterial activity against Enterobacter aerogenes ATCC 13048; assay type: functional
Pseudomonas aeruginosa [11] = assay: In vitro mouse protection test against Pseudomonas aeruginosa 5007 (100 X LD50) (subcutaneous administration; Range is between (1.1-3.8).; assay type: functional; conditions: sc
Escherichia coli [12] = assay: In vitro antibacterial activity against Escherichia coli Juhl; assay type: functional
Pseudomonas aeruginosa [13] = assay: […] against Pseudomonas aeruginosa 5007 (100 X LD50) (peroral administration );Range is between (17.7-44.1); assay type: functional
Escherichia coli [14] = assay: […] against Escherichia coli Juhl (100 X LD50) (s.c. administration );Range is between (1.6-3.9); assay type: functional
Pseudomonas aeruginosa [15] = assay: […] against Pseudomonas aeruginosa 5007 (100 X LD50) (subcutaneous administration );Range is between (6.6-16.2); assay type: functional
Escherichia coli [16] = assay: […] against Escherichia coli Juhl (100 X LD50) (p.o. administration );Range is between (2.2-7.0); assay type: functional
Staphylococcus aureus [17] = assay: […] against Staphylococcus aureus NCTC 10649 (100 X LD50),(peroral administration); Range is between (3.7-10.2).; assay type: functional; conditions: po
Staphylococcus aureus [18] = assay: In vitro mouse protection test against Staphylococcus aureus NCTC 10649 (100 X LD50) (s.c. administration );Range is between (2.6-5.4).; assay type: functional; conditions: sc
Staphylococcus aureus [19] = assay: Compound was evaluated in vivo for antibacterial activity against Staphylococcus aureus NCTC 10649 (100 X LD50) (p.o. administration); Range is between (7.9-19-7).; assay type: functional; conditions: po
Staphylococcus aureus [20] = assay: Compound was evaluated in vivo for antibacterial activity against Staphylococcus aureus NCTC 10649 (100 X LD50) (s.c. administration); Range is between (1.0-2.5); assay type: functional; conditions: sc
Pseudomonas aeruginosa [21] = assay: Compound was evaluated in vivo for antibacterial activity against Pseudomonas aeruginosa 5007 (100 X LD50) (p.o. administration); Range is between (15.8-39.6).; assay type: functional; conditions: po
Escherichia coli [22] = assay: […] against Escherichia coli Juhl (100 X LD50) (s.c. administration); Range is between (0.6-1.5); assay type: functional; conditions: sc
Staphylococcus aureus [23] = assay: In vitro mouse protection test against Staphylococcus aureus NCTC 10649 (100 X LD50),(peroral administration); Range is between (7.9-19-7); assay type: functional; conditions: po
Pseudomonas aeruginosa [24] = assay: Compound was evaluated in vivo for antibacterial activity against Pseudomonas aeruginosa 5007 (100 X LD50) (s.c. administration); Range is between (4.9-8.1); assay type: functional; conditions: sc
Pseudomonas aeruginosa [25] = assay: […] against Pseudomonas aeruginosa 5007 (100 X LD50) (subcutaneous administration); Range is between (4.9-8.1); assay type: functional; conditions: sc
Pseudomonas aeruginosa [26] = assay: […] against Pseudomonas aeruginosa 5007 (100 X LD50) (peroral administration); Range is between (15.8-[…]); assay type: functional; conditions: po
Escherichia coli [27] = assay: […] against Escherichia coli Juhl (100 X LD50); Range is between (2.0-5.0); assay type: functional
Escherichia coli [28] = assay: Compound was evaluated in vivo for antibacterial activity against Escherichia coli Juhl (100 X LD50) (s.c. administration); range is between (0.6-2.5); assay type: functional; conditions: sc
Staphylococcus aureus [29] = assay: In vitro mouse protection test against Staphylococcus aureus NCTC 10649 (100 X LD50) (s.c. administration); Range is between (1.0-2.5); assay type: functional; conditions: sc
Escherichia coli [30] = assay: Compound was evaluated in vivo for antibacterial activity against Escherichia coli Juhl (100 X LD50); assay type: functional
Escherichia coli [31] = assay: Compound was evaluated in vivo for antibacterial activity against Escherichia coli Juhl (100 X LD50) (p.o. administration); Range is between (2.0-5.0); assay type: functional; conditions: po

| Compound | MIC (Acinetobacter) | MIC (Staphylococcus aureus [1]) | MIC [2] | MIC (Klebsiella pneumoniae) | MIC (Pseudomonas aeruginosa [3]) | MIC (Streptococcus pyogenes) | MIC (Enterococcus faecium) | MIC (Pseudomonas aeruginosa [7]) | MIC (Staphylococcus aureus [10]) | MIC (Klebsiella aerogenes) | MIC (Escherichia coli [12]) | further results |
| --- | --- | --- | --- | --- | --- | --- | --- | --- | --- | --- | --- | --- |
| O=C(O)c1cn(C2CC2)c2cc(N3CCNCC3)c(F)cc2c1=O [CIPROFLOXACIN] | 1.56 µg/mL (≈ 4.71 µM) | 0.39 µg/mL (≈ 1.18 µM) | 0.39 µg/mL (≈ 1.18 µM) | 0.02 µg/mL (≈ 0.0604 µM) | 0.1 µg/mL (≈ 0.302 µM) | 0.39 µg/mL (≈ 1.18 µM) | 0.2 µg/mL (≈ 0.604 µM) | 0.1 µg/mL (≈ 0.302 µM) | 0.2 µg/mL (≈ 0.604 µM) | 0.05 µg/mL (≈ 0.151 µM) |  | ED50 (Pseudomonas aeruginosa [4]): 13.3 mg/kg; ED50 (Escherichia coli [5]): 0.2 mg/kg; ED50 (Staphylococcus aureus [6]): 1.6 mg/kg; ED50 (Staphylococcus aureus [8]): 15.5 mg/kg; ED50 (Escherichia coli [9]): 1.9 mg/kg; ED50 (Pseudomonas aeruginosa [11]): 2.1 mg/kg |
| NC1CCN(c2c(F)cc3c(=O)c(C(=O)O)cn(-c4ccc(F)cc4F)c3c2F)C1 (stereo not given) | 0.39 µg/mL (≈ 0.926 µM) | 0.2 µg/mL (≈ 0.475 µM) | 0.39 µg/mL (≈ 0.926 µM) | 0.1 µg/mL (≈ 0.237 µM) | 1.56 µg/mL (≈ 3.7 µM) | 0.78 µg/mL (≈ 1.85 µM) | 1.56 µg/mL (≈ 3.7 µM) | 0.78 µg/mL (≈ 1.85 µM) | 0.2 µg/mL (≈ 0.475 µM) | 0.2 µg/mL (≈ 0.475 µM) | 0.1 µg/mL (≈ 0.237 µM) |  |
| NC1CCN(c2cc3c(cc2F)c(=O)c(C(=O)O)cn3-c2ccc(F)cc2)C1 (stereo not given) | 0.2 µg/mL (≈ 0.519 µM) | 0.05 µg/mL (≈ 0.13 µM) | 0.05 µg/mL (≈ 0.13 µM) | 0.02 µg/mL (≈ 0.0519 µM) | 0.2 µg/mL (≈ 0.519 µM) | 0.1 µg/mL (≈ 0.259 µM) | 0.78 µg/mL (≈ 2.02 µM) | 0.2 µg/mL (≈ 0.519 µM) | 0.05 µg/mL (≈ 0.13 µM) | 0.05 µg/mL (≈ 0.13 µM) | 0.02 µg/mL (≈ 0.0519 µM) |  |
| CCn1cc(C(=O)O)c(=O)c2cc(F)c(N3CCNCC3)cc21 [NORFLOXACIN] | 6.2 µg/mL (≈ 19.4 µM) | 0.78 µg/mL (≈ 2.44 µM) | 1.56 µg/mL (≈ 4.89 µM) | 0.1 µg/mL (≈ 0.313 µM) | 0.39 µg/mL (≈ 1.22 µM) | 3.1 µg/mL (≈ 9.71 µM) | 0.78 µg/mL (≈ 2.44 µM) | 0.39 µg/mL (≈ 1.22 µM) | 0.78 µg/mL (≈ 2.44 µM) | 0.2 µg/mL (≈ 0.626 µM) | 0.1 µg/mL (≈ 0.313 µM) |  |
| CN1CCN(c2c(F)cc3c(=O)c(C(=O)O)cn(-c4ccc(F)cc4F)c3c2F)CC1 | 0.39 µg/mL (≈ 0.896 µM) | 0.39 µg/mL (≈ 0.896 µM) | 0.78 µg/mL (≈ 1.79 µM) | 0.2 µg/mL (≈ 0.459 µM) | 3.1 µg/mL (≈ 7.12 µM) | 3.1 µg/mL (≈ 7.12 µM) | 6.2 µg/mL (≈ 14.2 µM) | 1.56 µg/mL (≈ 3.58 µM) | 0.39 µg/mL (≈ 0.896 µM) | 0.39 µg/mL (≈ 0.896 µM) | 0.39 µg/mL (≈ 0.896 µM) | ED50 mg/kg (Pseudomonas aeruginosa [13]): 27.9; ED50 mg/kg (Escherichia coli [14]): 2.5; ED50 mg/kg (Pseudomonas aeruginosa [15]): 10.3; ED50 mg/kg (Escherichia coli [16]): 3.9; ED50 (Staphylococcus aureus [17]): 6.1 mg/kg; ED50 (Staphylococcus aureus [18]): 3.7 mg/kg |
| O=C(O)c1cn(-c2ccc(F)cc2)c2c(F)c(N3CCNCC3)c(F)cc2c1=O | 0.39 µg/mL (≈ 0.967 µM) | 0.39 µg/mL (≈ 0.967 µM) | 0.78 µg/mL (≈ 1.93 µM) | 0.05 µg/mL (≈ 0.124 µM) | 0.78 µg/mL (≈ 1.93 µM) | 1.56 µg/mL (≈ 3.87 µM) | 6.2 µg/mL (≈ 15.4 µM) | 0.39 µg/mL (≈ 0.967 µM) | 0.39 µg/mL (≈ 0.967 µM) | 0.1 µg/mL (≈ 0.248 µM) | 0.1 µg/mL (≈ 0.248 µM) | ED50 (Staphylococcus aureus [19]): 12.5 mg/kg; ED50 (Staphylococcus aureus [20]): 1.6 mg/kg; ED50 (Pseudomonas aeruginosa [21]): 25 mg/kg; ED50 (Escherichia coli [22]): 1 mg/kg; ED50 (Staphylococcus aureus [23]): 12.5 mg/kg; ED50 (Pseudomonas aeruginosa [24]): 6.3 mg/kg; ED50 (Pseudomonas aeruginosa [25]): 6.3 mg/kg; ED50 (Pseudomonas aeruginosa [26]): 25 mg/kg; ED50 (Escherichia coli [27]): 3.2 mg/kg; ED50 (Escherichia coli [28]): 1 mg/kg; ED50 (Staphylococcus aureus [29]): 1.6 mg/kg; MIC (Escherichia coli [30]): 0.1 µg/mL (≈ 0.248 µM); ED50 (Escherichia coli [31]): 3.2 mg/kg |
